Each block holds one compound with its values, some of them ahead of it.
Key:
[1] = test system: 3T3-L1 cells; assay: Adipogenesis assay (in vitro), Nile Red lipid staining; type: cell-based; conditions: Mus musculus, mean values of at least 2 independent tests, read-out: Adipogenesis inhibition IC50
Protocol: 3T3-L1 cells (mouse embryonic fibroblast-like adipocyte cell line) are seeded in a 48-well plate with collagen I-coating in a concentration of 3×10^4 cells/well. After 72 h cultivation at 37° C. and 5% CO2 in DMEM (Dulbecco's Modified Eagle Medium), enriched with 10% calf serum, various concentrations of the test substances in DMEM, enriched with 10% foetal calf serum and to which are added 1 μg/ml insulin, 0.25 μM dexamethasone and 0.5 mM IBMX (3-isobutyl-1-methylxanthine), are added and incubated for a further 48 h. A media change takes place, in that DMEM, enriched with 10% foetal calf serum and with 1 μg/ml insulin added, are applied. After renewed cultivation for 48 h, a further media change takes place, in which DMEM, enriched with 10% foetal calf serum, is applied.
After a further incubation for 72 h, the intracellularly stored lipids are quantified as a measure for the differentiation of the cells by measuring the fluorescence after staining of the lipids with the fluorescent dye Nile Red.
The inhibition of the adipogenesis in the presence of the test substances is calculated according to the following equation:
[formula] wherein RFU test substance=relative fluorescent units of the wells with test substance and with cells RFU control=relative fluorescent units of the wells without test substance, but with cells RFU control without cells=relative fluorescent units of the wells without test substance and without cells The IC50 is calculated from the adipogenesis inhibition [%] in a series of dilutions of tested samples. This is the concentration at which the adipogenesis is 50% inhibited.

[2] = test system: 3T3-L1 cells; assay: Lipolysis assay, in vitro on 3T3-L1 cells, free glycerol release; type: cell-based; conditions: Mus musculus; differentiated 3T3-L1 cells, about 20 hours of incubation; mean values from at least 2 independent tests; read-out: Stimulation of lipolysis EC50
Protocol: 3T3-L1 cells (mouse embryonic fibroblast-like adipocyte cell line) are seeded in a 48-well plate with collagen I-coating in a concentration of 3×10^4 cells/well. The cultivation and differentiation of the cells takes place analogously to the details in Example 2 (adipogenesis assay).
Various concentrations of the test substances are applied to the cells in DMEM, with bovine serum albumen added. After about 20 hours of incubation, the quantification of free glycerol in the supernatant of the cells takes place, which is released by the cells after hydrolysis of triglycerides in the cells and is a measure of the lipolysis of the cells. The quantification of the free glycerol is carried out based on an enzymatic method with a free glycerol reagent.
The stimulation of the lipolysis in the presence of test substances is calculated according to the following equation:
[formula] wherein A test substance=absorption of the wells with test substance and with cells A test substance without cells=absorption of the wells with test substance without cells (absorption control) A control=absorption of the wells without test substance, but with cells A control without cells=absorption of the wells without test substance and without cells
The EC50 is calculated from the lipolysis stimulation [%] in a series of dilutions of tested samples. This is the concentration at which the lipolysis is 50% stimulated.

[3] = biological target: T1, pancreatic lipase (PL) (Sus scrofa, UniProt P00591); assay: Inhibition of PL, MUF oleate hydrolysis; type: biochemical; conditions: mean values of at least 2 independent tests
T1 construct: purchased Sigma-Aldrich
T1 sequence (P00591 1-450): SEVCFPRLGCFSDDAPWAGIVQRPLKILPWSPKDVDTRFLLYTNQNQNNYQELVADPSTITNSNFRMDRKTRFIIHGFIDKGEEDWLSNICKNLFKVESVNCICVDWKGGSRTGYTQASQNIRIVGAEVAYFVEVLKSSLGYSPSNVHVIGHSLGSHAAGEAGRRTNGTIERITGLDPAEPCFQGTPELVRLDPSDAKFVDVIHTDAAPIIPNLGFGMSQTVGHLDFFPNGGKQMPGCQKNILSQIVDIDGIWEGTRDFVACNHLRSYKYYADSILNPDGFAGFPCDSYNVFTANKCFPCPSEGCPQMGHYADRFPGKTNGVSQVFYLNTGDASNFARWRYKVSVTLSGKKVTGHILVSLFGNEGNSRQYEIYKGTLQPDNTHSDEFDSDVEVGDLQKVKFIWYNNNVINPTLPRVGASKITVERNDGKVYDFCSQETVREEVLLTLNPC
Excerpt: (§1) Lipogenesis is perceived as the storage of triglycerides in adipocytes. The inhibition of this storage can take place by means of the inhibition of the activity of extracellular lipoprotein lipase (LPL) in that the hydrolysis of extracellular triglycerides and therefore the absorption of free fatty acids by adipocytes are reduced. As a preliminary test, the inhibition of pancreatic lipase (PL) is investigated.
PL (Sigma-Aldrich), in the presence of test substances in different use concentrations has methylumbelliferyl oleate (MUF oleate) added as a substrate. Fluorescent methylumelliferon (MUF), is produced by hydrolysis of the MUF oleate by PL and is quantified. The inhibition of the hydrolysis of the MUF oleate is a measure of the inhibition of activity of the PL.
[formula] wherein MUF test substance=MUF concentration of the wells with test substance and with PL MUF control=MUF concentration of the wells without test substance, but with PL MUF control without PL=MUF concentration of the wells without test substance and without PL
The IC50 is calculated from the inhibition of the PL [%] in a series of dilutions of tested samples. This is the concentration, at which the activity of the PL is 50% inhibited.

[4] = biological target: T2, lipoprotein lipase (LPL) (Mus musculus, UniProt P11152); assay: Inhibition of LPL (lipogenesis assay), MUF oleate hydrolysis; type: biochemical; conditions: LPL obtained from differentiated 3T3-L1 cells; mean values of at least 2 independent tests
T2 construct: endogenous in cells; host or cells: differentiated 3T3-L1 cells (mouse); heparin-released supernatant
T2 sequence (P11152 28-474): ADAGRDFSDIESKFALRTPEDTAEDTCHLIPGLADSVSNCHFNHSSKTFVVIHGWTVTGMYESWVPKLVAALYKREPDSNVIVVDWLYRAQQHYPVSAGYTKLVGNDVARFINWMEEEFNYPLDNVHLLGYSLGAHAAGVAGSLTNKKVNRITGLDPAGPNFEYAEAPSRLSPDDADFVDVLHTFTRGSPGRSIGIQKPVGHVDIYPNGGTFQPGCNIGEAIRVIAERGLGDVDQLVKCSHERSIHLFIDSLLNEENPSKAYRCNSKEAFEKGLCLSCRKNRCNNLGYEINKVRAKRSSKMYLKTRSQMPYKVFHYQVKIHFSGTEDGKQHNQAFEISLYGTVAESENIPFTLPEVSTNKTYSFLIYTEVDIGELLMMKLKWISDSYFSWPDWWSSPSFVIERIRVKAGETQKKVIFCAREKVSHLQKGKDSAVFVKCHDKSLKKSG
Excerpt: as §1
The results of the inhibition of the PL are used as a preliminary test and are confirmed on LPL. To obtain LPL, 3T3-L1 cells (mouse embryonic fibroblast-like adipocyte cell line) are seeded in a 6-well plate with collagen I-coating in a concentration of 3×10^5 cells/well. The cultivation and differentiation of the cells takes place analogously to the details in Example 2 (adipogenesis assay). During the differentiation LPL is increasingly expressed. The LPL is present in a membrane-bound state and is released by one hour incubation with heparin solution at 2-8° C. to the supernatant of the cells.
The LPL thus obtained, in the presence of test substances in different use concentrations, has methylumbelliferyl oleate (MUF oleate) added as the substrate. Fluorescent methylumbelliferyl (MUF) is produced by hydrolysis of the MUF oleate by LPL and is quantified. The inhibition of the hydrolysis of the MUF oleate is a measure of the inhibition of the activity of the LPL and therefore the lipogenesis.
[formula] wherein MUF test substance=MUF concentration of the wells with test substance and with LPL MUF control=MUF concentration of the wells without test substance, but with LPL MUF control without LPL=MUF concentration of the wells without test substance and without LPL
The IC50 is calculated from the inhibition of the LPL [%] in a series of dilutions of tested samples. This is the concentration at which the activity of the LPL and therefore the lipogenesis is 50% inhibited.

IC50 [3]: 670 µM
SMILES: CCCCNC(=O)OC1CCCC(C)C1C (stereo not shown) [BIO1842, Butyl-carbamic acid 2,3-dimethyl-cyclohexyl ester]
IC50 [1]: 150 µM
EC50 [2]: 230 µM

IC50 [3]: 420 µM
SMILES: CC1CCCC(OC(=O)Nc2ccccc2O)C1C (stereo not shown) [BIO1643, (2-Hydroxy-phenyl)-carbamic acid 2,3-dimethyl-cyclohexyl ester]
IC50 [1]: 14 µM

IC50 [3]: 1860 µM
SMILES: COc1ccccc1NC(=O)OC1CC(C)CC(C)(C)C1 (stereo not shown) [BIO1703, (2-Methoxy-phenyl)-carbamic acid 3,3,5-trimethyl-cyclohexyl ester]
IC50 [1]: 51 µM

IC50 [4]: 870 µM
IC50 [3]: 340 µM
SMILES: C=C(C)C1CCC(C)CC1OC(=O)NCCCC (stereo not shown) [BIO1615, Butyl-carbamic acid 2-isopropenyl-5-methyl-cyclohexyl ester]
IC50 [1]: 160 µM
EC50 [2]: 820 µM

IC50 [3]: 470 µM
SMILES: COc1ccccc1NC(=O)OC1C(C)CCC(C)C1C (stereo not shown) [BIO1701, (2-Methoxy-phenyl)-carbamic acid 2,3,6-trimethyl-cyclohexyl ester]
IC50 [1]: 110 µM

IC50 [3]: 400 µM
SMILES: CCNC(=O)OC1CC(C)CC(C)C1 (mixture of isomers) [BIO1561, Ethyl-carbamic acid 3,5-dimethyl-cyclohexyl ester]

IC50 [3]: 2170 µM
SMILES: CC(C)C1CCCCC1OC(=O)NCc1ccccc1 (stereo not shown) [BIO1748, Benzyl-carbamic acid 2-isopropyl-cyclohexyl ester]
IC50 [1]: 59 µM
EC50 [2]: 810 µM

IC50 [4]: 680 µM
IC50 [3]: 520 µM
SMILES: CCCCCCNC(=O)OC1CC(C)CC(C)(C)C1 (stereo not shown) [BIO1850, Hexyl-carbamic acid 3,3,5-trimethyl-cyclohexyl ester]
IC50 [1]: 360 µM

IC50 [3]: 230 µM
SMILES: COc1ccccc1NC(=O)OC1CCCCC1C(C)C (stereo not shown) [BIO1744, (2-Methoxy-phenyl)-carbamic acid 2-isopropyl-cyclohexyl ester]

IC50 [3]: 420 µM
SMILES: CCNC(=O)OC1CCC(C)C(C)C1 (stereo not shown) [BIO1582, Ethyl-carbamic acid 3,4-dimethyl-cyclohexyl ester]

IC50 [3]: 1240 µM
SMILES: CCCCCCNC(=O)OC1CCCCC1C(C)C (stereo not shown) [BIO1851, Hexyl-carbamic acid 2-isopropyl-cyclohexyl ester]
IC50 [1]: 86 µM
EC50 [2]: 1170 µM

IC50 [3]: 510 µM
SMILES: CCCCNC(=O)OC1CCCC(C)C1 (stereo not shown) [BIO1821, Butyl-carbamic acid 3-methyl-cyclohexyl ester]

Second part, the compound before the results:

SMILES: CCCCNC(=O)OC1CC(C)CC(C)C1 (stereo not shown) [BIO1840, Butyl-carbamic acid 3,5-dimethyl-cyclohexyl ester]
IC50 [1]: 160 µM
EC50 [2]: 700 µM
IC50 [3]: 550 µM

SMILES: CC1CC(C)CC(OC(=O)Nc2ccccc2)C1 (stereo not shown) [BIO1685, Phenyl-carbamic acid 3,5-dimethyl-cyclohexyl ester]
IC50 [1]: 340 µM
EC50 [2]: 600 µM

SMILES: CCNC(=O)OC1CC2CCC1(C)C2(C)C (stereo not shown) [BIO1573, Ethyl-carbamic acid 1,7,7-trimethyl-bicyclo[2.2.1]hept-2-yl ester]
EC50 [2]: 350 µM

SMILES: CC1CC(C)CC(OC(=O)NCc2ccccc2)C1 (stereo not shown) [BIO1745, Benzyl-carbamic acid 3,5-dimethyl-cyclohexyl ester]
IC50 [1]: 120 µM
IC50 [3]: 130 µM

SMILES: CC(C)(C)C1CCC(OC(=O)NC2CCCCC2)CC1 (stereo not shown) [BIO1747, Cyclohexyl-carbamic acid 4-tert-butyl-cyclohexyl ester]
IC50 [1]: 120 µM
EC50 [2]: 610 µM

SMILES: CCNC(=O)OC1CCCC(C)C1C (stereo not shown) [BIO1581, Ethyl-carbamic acid 2,3-dimethyl-cyclohexyl ester]
IC50 [1]: 160 µM
IC50 [3]: 240 µM

SMILES: O=C(Nc1ccccc1)OC1CCCCC1 [BIO1741, Phenyl-carbamic acid cyclohexyl ester]
IC50 [1]: 440 µM
EC50 [2]: 360 µM

SMILES: Cc1ccc(NC(=O)OC2CCCCC2C(C)C)cc1 (stereo not shown) [BIO1824, p-Tolyl-carbamic acid 2-isopropyl-cyclohexyl ester]
IC50 [1]: 92 µM
EC50 [2]: 510 µM

SMILES: CC1CC(C)CC(OC(=O)NC2CCCCC2)C1 (stereo not shown) [BIO1743, Cyclohexyl-carbamic acid 3,5-dimethyl-cyclohexyl ester]
IC50 [1]: 91 µM
EC50 [2]: 1890 µM

SMILES: CCNC(=O)OC1CCC(C(C)C)C(C)C1 (stereo not shown) [BIO1560, Ethyl-carbamic acid 4-isopropyl-3-methyl-cyclohexyl ester]
IC50 [3]: 560 µM

SMILES: Cc1ccc(NC(=O)OC2CC(C)CC(C)C2)cc1 (stereo not shown) [BIO1822, p-Tolyl-carbamic acid 3,5-dimethyl-cyclohexyl ester]
IC50 [1]: 170 µM
